“And” between values parts separate entries of the source, which are not always exact repeats. Equal values may be shown once.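 Interpolation was linear, between the two tested concentrations surrounding the appropriate level; five concentrations were tested over 48 hours in 96-well plates. The concentration for 50% growth inhibition is given as GI50. TGI: concentration producing complete growth inhibition.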
Experiments:
Assay in all cases: DTP human tumour cell line panel, 48 h
[1] = test system: K-562 leukemia
[2] = test system: NCI-H522 lung
[3] = test system: SF-539 CNS
[4] = test system: SW-620 colon
[5] = test system: TK-10 renal
[6] = test system: A498 renal
[7] = test system: COLO 205 colon
[8] = test system: NCI-H460 lung
[9] = test system: MDA-MB-435
[10] = test system: NCI/ADR-RES ovarian

SMILES | TGI [1] | TGI [2] [µM] | TGI [3] | TGI [4] | TGI [5] | TGI [6] | TGI [7] [µM] | TGI [8] | GI50 [6] [µM] | GI50 [7] [µM] | GI50 [1] [µM] | GI50 [9] [µM] | TGI [9] [µM] | GI50 [8] [nM] | GI50 [2] [µM] | GI50 [3] [nM] | GI50 [4] [µM] | GI50 [5] [nM] | TGI [10] [µM] | GI50 [10] [nM]
COc1ccc(/C(C#N)=C2/O/C(=N/N)C(c3ccc(OC)c(OC)c3)C2=O)cc1OC (stereo unspecified) | > 100 µM | > 100 | > 100 µM | > 100 µM | > 100 µM | – | – | – | – | – | – | – | – | – | – | – | – | – | – | –
Cc1c(C(=O)/C=C/c2ccc3c(c2)OCO3)[n+](=O)c2ccccc2n1[O-] | > 100 µM | 36.9 | 49.3 µM | > 100 µM | 80.6 µM | 64 µM | 78.7 | 75.6 µM | – | – | – | – | – | – | – | – | – | – | – | –
Cc1ccccc1NC(=O)C(=O)CC(=O)c1sc(-n2nc(-c3ccccc3)cc2-c2ccccc2)nc1C | > 100 µM | > 100 | > 100 µM | > 100 µM | > 100 µM | > 100 µM | > 100 | > 100 µM | – | – | – | – | – | – | – | – | – | – | – | –
O=C(Nc1c(Cl)cc([N+](=O)[O-])cc1Cl)C(=O)C(C(=O)c1ccncc1)C1OC(=O)c2ccccc21 (stereo unspecified) | > 100 µM | > 100 | – | > 100 µM | > 100 µM | > 100 µM | > 100 | > 100 µM | – | – | – | – | – | – | – | – | – | – | – | –
COc1ccc(C2NC(c3ccc(OC)cc3)C(C)C(=O)C2C)cc1 (stereo unspecified) | > 100 µM | > 100 | > 100 µM | – | > 100 µM | > 100 µM | > 100 | > 100 µM | – | – | – | – | – | – | – | – | – | – | – | –
CCOC(=O)C(=O)Nc1nc2ccc(OC)cc2s1 | > 100 µM | – | > 100 µM | > 100 µM | > 100 µM | > 100 µM | > 100 | > 100 µM | – | – | – | – | – | – | – | – | – | – | – | –
O=C(O)c1cc2ccc(Cl)cc2c(O)c1C1=CCCCC1 | > 100 µM | 92.9 | > 100 µM | > 100 µM | > 100 µM | 79.1 µM | > 100 | > 100 µM | – | – | – | – | – | – | – | – | – | – | – | –
CN(C)CCC(/C=C/c1ccccc1)=N\Nc1c(F)c(F)c(F)c(F)c1F | > 100 µM | > 100 | > 100 µM | > 100 µM | > 100 µM | > 100 µM | > 100 | > 100 µM | – | – | – | – | – | – | – | – | – | – | – | –
Nc1c([N+](=O)[O-])ncn1C1OC(CO)C(O)C1O (stereo unspecified) | > 100 µM | > 100 | > 100 µM | > 100 µM | > 100 µM | > 100 µM | > 100 | > 100 µM | > 100 | > 100 | > 100 | > 100 | > 100 | > 100000 | > 100 | > 100000 | > 100 | > 100000 | – | –
CCOc1ccc(N=Nc2c(-c3ccccc3)nn(C(=O)CC(=O)Nc3ccccc3Cl)c2-c2ccccc2)cc1 | > 100 µM | > 100 | > 100 µM | > 100 µM | > 100 µM | – | > 100 | > 100 µM | – | – | – | – | – | – | – | – | – | – | – | –
O=C(Cn1ccnc1[N+](=O)[O-])NCc1ccc(F)cc1 | > 100 µM | > 100 | > 100 µM | > 100 µM | > 100 µM | > 100 µM | > 100 | > 100 µM | – | – | – | – | – | – | – | – | – | – | – | –
COc1cc([N+](=O)[O-])c(S(=O)(=O)O)cc1-[n+]1nc(C(=O)Nc2ccccc2)nn1-c1ccc([N+](=O)[O-])c(S(=O)(=O)[O-])c1 | > 100 µM | > 100 | > 100 µM | > 100 µM | > 100 µM | – | > 100 | > 100 µM | – | – | – | – | > 100 | – | – | – | – | – | > 100 | –
O=C(N[C@H]1CC2(C=C(I)C(=O)C(I)=C2)OC1=O)OCc1ccccc1 | 33.5 µM | 26.2 | 32 µM | – | 32.3 µM | > 100 µM | 28.1 | 43 µM | – | – | – | – | – | – | – | – | – | – | – | –
COC(=O)C1C(=O)NC2(C)CC1c1ccccc1O2 (stereo unspecified) | > 100 µM | > 100 | > 100 µM | > 100 µM | > 100 µM | > 100 µM | – | > 100 µM | – | – | – | – | – | – | – | – | – | – | – | –
CN(C)CN(C)c1nc(N(C)C)nc(N(C)C)n1 | > 100 µM | > 100 | > 100 µM | > 100 µM | > 100 µM | > 100 µM | > 100 | > 100 µM | – | – | – | – | – | – | – | – | – | – | – | –
COc1cc(COC(=O)N(C)[C@@H](Cc2ccccc2)C(=O)O)c([N+](=O)[O-])cc1OC | > 100 µM | – | > 100 µM | > 100 µM | – | – | – | > 100 µM | – | – | – | – | > 100 | – | – | – | – | – | > 100 | –
COc1cc2c(c(OC)c1OC)-c1ccc(SC)c(=O)cc1C(CC(=O)Oc1ccccc1F)C2 (stereo unspecified) | > 7.5 µM | 0.0307 | – | > 7.5 µM | > 7.5 µM | 6.77 µM | 0.0376 | > 7.5 µM | – | – | – | – | – | – | – | – | – | – | – | –
CC1(C)O[C@@H](CCl)C[C@@H](C#N)O1 | > 100 µM | > 100 | > 100 µM | > 100 µM | > 100 µM | > 100 µM | > 100 | > 100 µM | – | – | – | – | – | – | – | – | – | – | – | –
CC[C@]1(O)C[C@@H]2CN(CCc3c([nH]c4ccccc34)[C@@](C(=O)OC)(c3cc4c(cc3OC)N(C)[C@H]3[C@@](O)(C(=O)OC)[C@H](OC(=O)CCCBr)[C@]5(CC)C=CCN6CC[C@]43[C@@H]65)C2)C1 | > 100 µM | – | – | > 100 µM | > 100 µM | < 0.0258 µM | – | > 100 µM | < 0.0114 | – | < 0.01 | < 0.01 | < 0.01 | 24.5 | – | – | < 0.0146 | 2000 | > 100 | 986
Cc1cn([C@H]2CN(O)C[C@@H](CO)O2)c(=O)[nH]c1=O | > 100 µM | – | > 100 µM | > 100 µM | > 100 µM | > 100 µM | > 100 | > 100 µM | – | – | – | – | > 100 | – | – | – | – | – | – | –
O=C(CC/C(CC(=O)c1ccc(Cl)cc1)=N\O)Nc1cccc(Cl)c1 | > 100 µM | – | > 100 µM | > 100 µM | > 100 µM | > 100 µM | > 100 | > 100 µM | – | – | – | – | – | – | – | – | – | – | – | –
Cc1cc(N(CCC#N)CCC#N)ccc1/C=C1N=C(/C=C\c2ccccc2)N(c2ccc(C(=O)O)cc2)C\1=O | > 100 µM | > 100 | > 100 µM | > 100 µM | > 100 µM | > 100 µM | > 100 | > 100 µM | – | – | – | – | – | – | – | – | – | – | – | –
CC(=O)O[C@H]1C(=O)[C@@]2(C)C([C@H](OC(=O)c3ccccc3)[C@]3(O)C[C@H](OC(=O)[C@H](O)[C@@H](NC(=O)c4ccc(Cl)cc4)c4ccccc4)C(C)=C1C3(C)C)C1(OC(C)=O)CO[C@@H]1C[C@@H]2O (stereo partly specified) | > 25 µM and 12.5 µM | – | 0.273 µM and 0.0407 µM | 25 µM and > 100 µM | 25 µM and 47.7 µM | 25 µM and > 100 µM | – | 25 µM and > 100 µM | 11.1 | – | – | – | 0.0126 | – | – | 11.9 | – | 254 | 25 | –

From PubChem BioAssay (NCI)
